{"source": "ChEMBL document CHEMBL3751690", "about": "“Oxidative burst inhibition, cytotoxicity and antibacterial acriquinoline alkaloids from Citrus reticulate (Blanco)” (Bioorg Med Chem Lett, 2016)", "key": {"[1]": {"assay": "Inhibition of serum-opsonized zymosan-induced oxidative burst in whole blood (unknown origin)", "assay_type": "functional, tissue-based"}, "[2]": {"assay": "Cytotoxicity against human PC3 cells after 3 days by MTT assay", "assay_type": "functional, cell-based", "conditions": "PC-3, 72 h"}, "Bacillus subtilis": {"system": "Bacillus subtilis", "assay": "Antimicrobial activity against Bacillus subtilis after 48 hrs by paper disk diffusion assay", "assay_type": "functional"}, "Staphylococcus aureus": {"system": "Staphylococcus aureus", "assay": "Antimicrobial activity against Staphylococcus aureus after 48 hrs by paper disk diffusion assay", "assay_type": "functional"}, "Escherichia coli": {"system": "Escherichia coli", "assay": "Antimicrobial activity against Escherichia coli after 48 hrs by paper disk diffusion assay", "assay_type": "functional"}, "Rhizomucor miehei": {"system": "Rhizomucor miehei", "assay": "Antimicrobial activity against Mucor miehei after 48 hrs by paper disk diffusion assay", "assay_type": "functional"}, "Candida albicans": {"system": "Candida albicans", "assay": "Antimicrobial activity against Candida albicans after 48 hrs by paper disk diffusion assay", "assay_type": "functional"}, "Aphanomyces cochlioides": {"system": "Aphanomyces cochlioides", "assay": "Antimicrobial activity against Aphanomyces cochlioides after 48 hrs by paper disk diffusion assay", "assay_type": "functional"}, "Globisporangium ultimum": {"system": "Globisporangium ultimum", "assay": "Antimicrobial activity against Pythium ultimum after 48 hrs by paper disk diffusion assay", "assay_type": "functional"}, "Rhizoctonia solani": {"system": "Rhizoctonia solani", "assay": "Antimicrobial activity against Rhizoctonia solani after 48 hrs by paper disk diffusion assay", "assay_type": "functional"}}}
{"smiles": "COc1ccc2c(=O)c3c(O)cc4c(c3n(C)c2c1C1(O)C(=O)c2cc(C)cc3ccc(=O)n1c23)C=CC(C)(C)O4", "note": "(configuration not stated)", "values": [{"measurement": "IC50", "setting": "[1]", "value": 20.1, "unit": "µM"}, {"measurement": "IC50", "setting": "[2]", "value": 75.8, "unit": "µM"}, {"measurement": "MIC", "setting": "Bacillus subtilis", "value": "> 1", "unit": "µg/mL"}, {"measurement": "MIC", "setting": "Staphylococcus aureus", "value": "> 1", "unit": "µg/mL"}, {"measurement": "MIC", "setting": "Escherichia coli", "value": "> 1", "unit": "µg/mL"}, {"measurement": "MIC", "setting": "Rhizomucor miehei", "value": "> 1", "unit": "µg/mL"}, {"measurement": "MIC", "setting": "Candida albicans", "value": "> 1", "unit": "µg/mL"}, {"measurement": "MIC", "setting": "Aphanomyces cochlioides", "value": "> 1", "unit": "µg/mL"}, {"measurement": "MIC", "setting": "Globisporangium ultimum", "value": "> 1", "unit": "µg/mL"}, {"measurement": "MIC", "setting": "Rhizoctonia solani", "value": "> 1", "unit": "µg/mL"}]}
{"smiles": "Cc1cc2c3c(ccc(=O)n3C(O)(c3c(O)ccc4c(=O)c5c(O)cc6c(c5n(C)c34)C=CC(C)(C)O6)C2=O)c1", "note": "(configuration not stated)", "values": [{"measurement": "IC50", "setting": "[1]", "value": 17.2, "unit": "µM"}, {"measurement": "IC50", "setting": "[2]", "value": 71.5, "unit": "µM"}, {"measurement": "MIC", "setting": "Bacillus subtilis", "value": "> 1", "unit": "µg/mL"}, {"measurement": "MIC", "setting": "Staphylococcus aureus", "value": "> 1", "unit": "µg/mL"}, {"measurement": "MIC", "setting": "Escherichia coli", "value": "> 1", "unit": "µg/mL"}, {"measurement": "MIC", "setting": "Rhizomucor miehei", "value": "> 1", "unit": "µg/mL"}, {"measurement": "MIC", "setting": "Candida albicans", "value": "> 1", "unit": "µg/mL"}, {"measurement": "MIC", "setting": "Aphanomyces cochlioides", "value": "> 1", "unit": "µg/mL"}, {"measurement": "MIC", "setting": "Globisporangium ultimum", "value": "> 1", "unit": "µg/mL"}, {"measurement": "MIC", "setting": "Rhizoctonia solani", "value": "> 1", "unit": "µg/mL"}]}
{"smiles": "COc1cc(O)c(C=O)cc1OC", "values": [{"measurement": "IC50", "setting": "[1]", "value": 16.4, "unit": "µM"}, {"measurement": "IC50", "setting": "[2]", "value": 60.1, "unit": "µM"}, {"measurement": "MIC", "setting": "Bacillus subtilis", "value": "> 1", "unit": "µg/mL"}, {"measurement": "MIC", "setting": "Staphylococcus aureus", "value": "> 1", "unit": "µg/mL"}, {"measurement": "MIC", "setting": "Escherichia coli", "value": "> 1", "unit": "µg/mL"}, {"measurement": "MIC", "setting": "Rhizomucor miehei", "value": "> 1", "unit": "µg/mL"}, {"measurement": "MIC", "setting": "Candida albicans", "value": "> 1", "unit": "µg/mL"}, {"measurement": "MIC", "setting": "Aphanomyces cochlioides", "value": "> 1", "unit": "µg/mL"}, {"measurement": "MIC", "setting": "Globisporangium ultimum", "value": "> 1", "unit": "µg/mL"}, {"measurement": "MIC", "setting": "Rhizoctonia solani", "value": "> 1", "unit": "µg/mL"}]}
{"smiles": "COc1cccc2c(=O)c3c(O)cc4c(c3n(C)c12)C=CC(C)(C)O4", "values": [{"measurement": "IC50", "setting": "[1]", "value": 4.5, "unit": "µM"}, {"measurement": "IC50", "setting": "[2]", "value": 70, "unit": "µM"}, {"measurement": "MIC", "setting": "Bacillus subtilis", "value": "> 1", "unit": "µg/mL"}, {"measurement": "MIC", "setting": "Staphylococcus aureus", "value": "> 1", "unit": "µg/mL"}, {"measurement": "MIC", "setting": "Escherichia coli", "value": "> 1", "unit": "µg/mL"}, {"measurement": "MIC", "setting": "Rhizomucor miehei", "value": "> 1", "unit": "µg/mL"}, {"measurement": "MIC", "setting": "Candida albicans", "value": "> 1", "unit": "µg/mL"}, {"measurement": "MIC", "setting": "Aphanomyces cochlioides", "value": "> 1", "unit": "µg/mL"}, {"measurement": "MIC", "setting": "Globisporangium ultimum", "value": "> 1", "unit": "µg/mL"}, {"measurement": "MIC", "setting": "Rhizoctonia solani", "value": "> 1", "unit": "µg/mL"}]}
{"smiles": "CC1(C)C=Cc2c(cc(O)c3c(=O)cc(-c4ccc(O)cc4)oc23)O1", "note": "[ATALANTOFLAVONE]", "values": [{"measurement": "IC50", "setting": "[1]", "value": 10.5, "unit": "µM"}, {"measurement": "IC50", "setting": "[2]", "value": 55.6, "unit": "µM"}, {"measurement": "MIC", "setting": "Bacillus subtilis", "value": "> 1", "unit": "µg/mL"}, {"measurement": "MIC", "setting": "Staphylococcus aureus", "value": "> 1", "unit": "µg/mL"}, {"measurement": "MIC", "setting": "Escherichia coli", "value": "> 1", "unit": "µg/mL"}, {"measurement": "MIC", "setting": "Rhizomucor miehei", "value": "> 1", "unit": "µg/mL"}, {"measurement": "MIC", "setting": "Candida albicans", "value": "> 1", "unit": "µg/mL"}, {"measurement": "MIC", "setting": "Aphanomyces cochlioides", "value": "> 1", "unit": "µg/mL"}, {"measurement": "MIC", "setting": "Globisporangium ultimum", "value": "> 1", "unit": "µg/mL"}, {"measurement": "MIC", "setting": "Rhizoctonia solani", "value": "> 1", "unit": "µg/mL"}]}
{"smiles": "COc1cccc2c1C(=O)c1c(O)c3c(c(O)c1C2=O)C[C@@](O)(C(=O)CO)C[C@@H]3O[C@H]1C[C@H](N)[C@H](O)[C@H](C)O1", "note": "[DOXORUBICIN]", "values": [{"measurement": "IC50", "setting": "[2]", "value": 0.9, "unit": "µM"}]}
{"smiles": "CC(C)Cc1ccc(C(C)C(=O)O)cc1", "note": "(configuration not stated) [IBUPROFEN]", "values": [{"measurement": "IC50", "setting": "[1]", "value": 11.2, "unit": "µM"}]}
{"smiles": "COc1c2ccoc2c(OC)c2oc(=O)ccc12", "note": "[ISOPIMPINELLIN]", "values": [{"measurement": "IC50", "setting": "[1]", "value": 9.4, "unit": "µM"}, {"measurement": "IC50", "setting": "[2]", "value": 99.8, "unit": "µM"}, {"measurement": "MIC", "setting": "Bacillus subtilis", "value": "> 1", "unit": "µg/mL"}, {"measurement": "MIC", "setting": "Staphylococcus aureus", "value": "> 1", "unit": "µg/mL"}, {"measurement": "MIC", "setting": "Escherichia coli", "value": "> 1", "unit": "µg/mL"}, {"measurement": "MIC", "setting": "Rhizomucor miehei", "value": "> 1", "unit": "µg/mL"}, {"measurement": "MIC", "setting": "Candida albicans", "value": "> 1", "unit": "µg/mL"}, {"measurement": "MIC", "setting": "Aphanomyces cochlioides", "value": "> 1", "unit": "µg/mL"}, {"measurement": "MIC", "setting": "Globisporangium ultimum", "value": "> 1", "unit": "µg/mL"}, {"measurement": "MIC", "setting": "Rhizoctonia solani", "value": "> 1", "unit": "µg/mL"}]}
{"smiles": "COc1cc2ccc(=O)oc2cc1OC", "note": "[SCOPARONE]", "values": [{"measurement": "IC50", "setting": "[1]", "value": 11.4, "unit": "µM"}, {"measurement": "IC50", "setting": "[2]", "value": 54.4, "unit": "µM"}, {"measurement": "MIC", "setting": "Bacillus subtilis", "value": "> 1", "unit": "µg/mL"}, {"measurement": "MIC", "setting": "Staphylococcus aureus", "value": "> 1", "unit": "µg/mL"}, {"measurement": "MIC", "setting": "Escherichia coli", "value": "> 1", "unit": "µg/mL"}, {"measurement": "MIC", "setting": "Rhizomucor miehei", "value": "> 1", "unit": "µg/mL"}, {"measurement": "MIC", "setting": "Candida albicans", "value": "> 1", "unit": "µg/mL"}, {"measurement": "MIC", "setting": "Aphanomyces cochlioides", "value": "> 1", "unit": "µg/mL"}, {"measurement": "MIC", "setting": "Globisporangium ultimum", "value": "> 1", "unit": "µg/mL"}, {"measurement": "MIC", "setting": "Rhizoctonia solani", "value": "> 1", "unit": "µg/mL"}]}
{"smiles": "COc1cc2oc(=O)ccc2cc1CC=C(C)C", "note": "[SUBEROSIN]", "values": [{"measurement": "IC50", "setting": "[1]", "value": 18.3, "unit": "µM"}, {"measurement": "IC50", "setting": "[2]", "value": 51.3, "unit": "µM"}, {"measurement": "MIC", "setting": "Bacillus subtilis", "value": "> 1", "unit": "µg/mL"}, {"measurement": "MIC", "setting": "Staphylococcus aureus", "value": "> 1", "unit": "µg/mL"}, {"measurement": "MIC", "setting": "Escherichia coli", "value": "> 1", "unit": "µg/mL"}, {"measurement": "MIC", "setting": "Rhizomucor miehei", "value": "> 1", "unit": "µg/mL"}, {"measurement": "MIC", "setting": "Candida albicans", "value": "> 1", "unit": "µg/mL"}, {"measurement": "MIC", "setting": "Aphanomyces cochlioides", "value": "> 1", "unit": "µg/mL"}, {"measurement": "MIC", "setting": "Globisporangium ultimum", "value": "> 1", "unit": "µg/mL"}, {"measurement": "MIC", "setting": "Rhizoctonia solani", "value": "> 1", "unit": "µg/mL"}]}
